Experimental data taken from patent publication US12213501B2, “Methods for modifying high intensity sweetener glycosides” (Optibiotix Limited, priority 2018, dated 2025).
Marks after values point to notes of the source that are not given here.

Legend:
trained sensory panel = test: Sensory profiling (QDA) of sweetener samples by trained sensory panel; assay type: in vivo, human; conditions: for Sweet Taste Intensity: Table 3, concentration printed 0.032 g/L (steviol glycosides samples) or 0.024 g/L (others); for ES (equivalent sucrose concentration): from mean sweetness rating via Sweetness=15.5 (sucrose)-22.5; for ES (equivalent sucrose concentration) / Potency: concentration 0.032 or 0.024 g/L; for Bitter Taste / Cardboard/Stale Flavour / Cooked sugar flavour / Cooling Sensation / Crusty Bread Flavour / Liquorice Flavour / Metallic / Overall Strength of Off Taste/Flavour / Perfume Flavour / Salty Taste / Sour Taste / Sweet Taste / Bitter Aftertaste / Cooling Aftereffect / Liquorice Aftereffect / Sweet Aftertaste: mean rating, line scale 0-100, Stevia samples 0.32 g/L, Reb and Mogroside samples 0.24 g/L water; for Bitter Aftertaste / Cooling Aftereffect / Liquorice Aftereffect / Sweet Aftertaste: scored after 30 second delay; for Potency: sweet potency relative to sucrose; for liquorice flavour compared between sweeteners: unmodified sweeteners; for Mean Rating (0-100): sweetness as agreed by the panel
[1] = Initial tasting against sucrose standards; assay type: in vivo; conditions: all samples at 0.32 g/L, compared with Steviol glycosides
Procedure: For the initial tasting sucrose standards were prepared at 4, 6, 8 and 10% (w/v) sucrose. Aiming for 8% sucrose equivalence all HIS and enzyme modified samples were also prepared at 0.32 g/L. From the initial tasting it had been concluded that the sucrose standard range needed to be reduced to 2, 4, 6 and 8% as the 10% sample was too extreme.

[2] = reported; cited from earlier work
[3] = Reported bitterness of steviol glycosides and sucrose equivalence (literature); assay type: in vivo, human
Description: Often sweeteners are compared to sucrose at 8% sucrose equivalent (Prakash, G. E. DuBois, J. F. Clos, K. L. Wilkens, L. E. Fosdick. (2008). Development of rebiana, a natural, non-caloric sweetener. Food and Chemical Toxicology. Volume 46, Issue 7, Pages S75-S82. Previous literature (Caroline Hellfritsch, Anne Brockhoff, Frauke Stähler, Wolfgang Meyerhof, and Thomas Hofmann (2012). Human Psychometric and Taste Receptor Responses to Steviol Glycosides. Journal of Agricultural and Food Chemistry 2012 60 (27), 6782-6793) has shown bitterness of steviol glycosides to be most obvious at around 1000 μM which for Rebaudioside A would be 0.97 g/L, equivalent to 24% sucrose. However, solutions of 100 μM are also bitter which for Rebaudioside A would be 0.097 g/L, equivalent to 2.4% sucrose. Therefore, it was decided to test solutions at equivalent sweetness levels above 2% sucrose to ensure that both sweetness and bitterness could be evaluated in levels applicable to final application.

[4] = modified high intensity sweetener compared to un-modified

Compound | effect of enzyme modification on sweetness (trained sensory panel; CGTase modified vs unmodified) | Sweet Taste Intensity (trained sensory panel) | ES (equivalent sucrose concentration) (trained sensory panel) | Bitter Taste (trained sensory panel) | Cardboard/Stale Flavour (trained sensory panel) | Cooked sugar flavour (trained sensory panel) | Cooling Sensation (trained sensory panel) | Crusty Bread Flavour (trained sensory panel) | Liquorice Flavour (trained sensory panel) | Metallic (trained sensory panel) | Overall Strength of Off Taste/Flavour (trained sensory panel) | Perfume Flavour (trained sensory panel) | Salty Taste (trained sensory panel) | Sour Taste (trained sensory panel) | Sweet Taste (trained sensory panel) | Bitter Aftertaste (trained sensory panel) | Cooling Aftereffect (trained sensory panel) | Liquorice Aftereffect (trained sensory panel) | Sweet Aftertaste (trained sensory panel) | Potency (trained sensory panel) | other results
C[C@H](CC[C@@H](O[C@@H]1O[C@H](CO[C@@H]2O[C@H](CO)[C@@H](O)[C@H](O)[C@H]2O)[C@@H](O)[C@H](O)[C@H]1O[C@@H]1O[C@H](CO)[C@@H](O)[C@H](O)[C@H]1O)C(C)(C)O)[C@H]1CC[C@@]2(C)[C@@H]3CC=C4[C@@H](CC[C@H](O[C@@H]5O[C@H](CO[C@@H]6O[C@H](CO)[C@@H](O)[C@H](O)[C@H]6O)[C@@H](O)[C@H](O)[C@H]5O)C4(C)C)[C@]3(C)[C@H](O)C[C@]12C [Mogroside, Mogroside V] | reduced the sweetness | 47.3 | 4.5% | 7.3^c | 0.7^c | 3.2^ab | 2.6^ab | 3.3^a | 21.4^a | 3.4^b | 25.6^cd | 0.3^a | 0.8^a | 1.2^b | 47.3^b | 4.6^c | 1.6^ab | 10.8^bc | 28.2^b | 188 | effect of enzymatic modification on liquorice flavour (trained sensory panel; CGTase modified vs unmodified): significantly reduced; Bitter taste: reduction % (trained sensory panel; [4]): 0%; Bitter taste: reduction ratio (trained sensory panel; [4]): 0; Liquorice taste: reduction % (trained sensory panel; [4]): 41%; Liquorice taste: reduction ratio (trained sensory panel; [4]): 1.7; Metallic: reduction % (trained sensory panel; [4]): 67%; Metallic: reduction ratio (trained sensory panel; [4]): 3; liquorice flavour compared between sweeteners (trained sensory panel): equivalent in liquorice flavour; sweetness in initial tasting [1]: considered sweeter than the Steviol glycosides; sweet potency relative to sucrose [2]: ~400 ×
C=C1C[C@@]23CC[C@H]4[C@@](C)(CCC[C@@]4(C)C(=O)O[C@@H]4O[C@H](CO)[C@@H](O)[C@H](O)[C@H]4O)[C@@H]2CC[C@]1(O[C@@H]1O[C@H](CO)[C@@H](O)[C@H](O[C@@H]2O[C@H](CO)[C@@H](O)[C@H](O)[C@H]2O)[C@H]1O[C@@H]1O[C@H](CO)[C@@H](O)[C@H](O)[C@H]1O)C3 [Reb, Rebaudioside A] | reduced the sweetness | 60.3 | 5.3% | 10.8^bc | 0.6^c | 3.9^a | 4.7^a | 0.5^bc | 24.2^a | 2.7^bc | 31.9^bc | 0.4^a | 1.6^a | 0.9^b | 60.3^a | 6.5^bc | 2.1^a | 11.6^bc | 34.8^a | 223 | sweetness compared between sweeteners (trained sensory panel; Rebaudioside A 0.24 g/L vs Steviol glycosides 0.32 g/L and Mogroside V 0.24 g/L): significantly more sweet; liquorice flavour compared between sweeteners (trained sensory panel): equivalent in liquorice flavour; equivalent sucrose ([3]; 100 μM = 0.097 g/L): 2.4 % sucrose; equivalent sucrose ([3]; 1000 μM = 0.97 g/L): 24 % sucrose; sweetness in initial tasting [1]: considered sweeter than the Steviol glycosides; sweet potency relative to sucrose [2]: ~250 ×
OC[C@H]1O[C@@](CO)(O[C@H]2O[C@H](CO)[C@@H](O)[C@H](O)[C@H]2O)[C@@H](O)[C@@H]1O [Sucrose] |  |  |  |  |  |  |  |  |  |  |  |  |  |  |  |  |  |  |  |  | Mean Rating (0-100) (trained sensory panel; sucrose standard 1, 2.0 % w/v): 10; Mean Rating (0-100) (trained sensory panel; sucrose standard 2, 4.0 % w/v): 35; Mean Rating (0-100) (trained sensory panel; sucrose standard 3, 6.0 % w/v): 75; Mean Rating (0-100) (trained sensory panel; sucrose standard 4, 8.0 % w/v): 100
